What was measured:
[1] = target: 5-hydroxytryptamine receptor 1D (Homo sapiens) (UniProt P28221); settings: Compound concentration 10.0 uM
[2] = target: Calcium/calmodulin-dependent protein kinase type 1D (Homo sapiens) (UniProt Q8IU85); assay: CAMK1D SGC Tm panel (DSF); settings: for ΔTm: Compound concentration 10.0 uM
[3] = target: 5-hydroxytryptamine receptor 2B (Homo sapiens, UniProt P41595); settings: Compound concentration 10.0 uM
[4] = target: T1, Ephrin type-B receptor 1 (Homo sapiens) (UniProt P54762); assay: EPHB1 SGC Tm panel (DSF); settings: for ΔTm: Compound concentration 10.0 uM
T1 sequence (whole entry): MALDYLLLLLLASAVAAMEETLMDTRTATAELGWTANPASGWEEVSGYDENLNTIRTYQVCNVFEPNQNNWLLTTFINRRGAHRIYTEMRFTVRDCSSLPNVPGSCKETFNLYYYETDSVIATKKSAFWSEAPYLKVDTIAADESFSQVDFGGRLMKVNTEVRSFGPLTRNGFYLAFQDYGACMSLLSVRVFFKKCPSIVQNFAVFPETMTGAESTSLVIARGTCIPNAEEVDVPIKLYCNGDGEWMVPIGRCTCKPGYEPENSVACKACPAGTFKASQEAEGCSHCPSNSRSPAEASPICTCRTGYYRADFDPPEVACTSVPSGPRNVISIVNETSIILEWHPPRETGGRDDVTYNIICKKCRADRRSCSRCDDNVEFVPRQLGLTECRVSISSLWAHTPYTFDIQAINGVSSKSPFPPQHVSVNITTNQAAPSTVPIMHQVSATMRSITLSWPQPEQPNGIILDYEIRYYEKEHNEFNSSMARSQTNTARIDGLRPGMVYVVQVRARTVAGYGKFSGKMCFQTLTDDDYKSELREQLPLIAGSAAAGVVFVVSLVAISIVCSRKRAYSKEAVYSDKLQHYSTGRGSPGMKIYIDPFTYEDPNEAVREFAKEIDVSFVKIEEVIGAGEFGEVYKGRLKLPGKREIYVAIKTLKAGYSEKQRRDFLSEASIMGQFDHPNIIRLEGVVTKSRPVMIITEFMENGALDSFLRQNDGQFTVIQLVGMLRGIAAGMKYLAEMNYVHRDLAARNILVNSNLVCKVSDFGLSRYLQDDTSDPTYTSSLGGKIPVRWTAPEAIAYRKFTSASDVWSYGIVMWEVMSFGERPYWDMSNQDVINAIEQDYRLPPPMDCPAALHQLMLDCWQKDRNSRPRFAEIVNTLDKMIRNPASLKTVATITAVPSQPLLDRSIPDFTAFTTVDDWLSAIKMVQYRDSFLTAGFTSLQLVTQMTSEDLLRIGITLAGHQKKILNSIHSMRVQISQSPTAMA

[5] = target: T2, Tyrosine-protein kinase Mer (Homo sapiens) (UniProt Q12866); assay: MERTK SGC Tm panel (DSF); settings: for ΔTm: Compound concentration 10.0 uM
T2 sequence (whole entry): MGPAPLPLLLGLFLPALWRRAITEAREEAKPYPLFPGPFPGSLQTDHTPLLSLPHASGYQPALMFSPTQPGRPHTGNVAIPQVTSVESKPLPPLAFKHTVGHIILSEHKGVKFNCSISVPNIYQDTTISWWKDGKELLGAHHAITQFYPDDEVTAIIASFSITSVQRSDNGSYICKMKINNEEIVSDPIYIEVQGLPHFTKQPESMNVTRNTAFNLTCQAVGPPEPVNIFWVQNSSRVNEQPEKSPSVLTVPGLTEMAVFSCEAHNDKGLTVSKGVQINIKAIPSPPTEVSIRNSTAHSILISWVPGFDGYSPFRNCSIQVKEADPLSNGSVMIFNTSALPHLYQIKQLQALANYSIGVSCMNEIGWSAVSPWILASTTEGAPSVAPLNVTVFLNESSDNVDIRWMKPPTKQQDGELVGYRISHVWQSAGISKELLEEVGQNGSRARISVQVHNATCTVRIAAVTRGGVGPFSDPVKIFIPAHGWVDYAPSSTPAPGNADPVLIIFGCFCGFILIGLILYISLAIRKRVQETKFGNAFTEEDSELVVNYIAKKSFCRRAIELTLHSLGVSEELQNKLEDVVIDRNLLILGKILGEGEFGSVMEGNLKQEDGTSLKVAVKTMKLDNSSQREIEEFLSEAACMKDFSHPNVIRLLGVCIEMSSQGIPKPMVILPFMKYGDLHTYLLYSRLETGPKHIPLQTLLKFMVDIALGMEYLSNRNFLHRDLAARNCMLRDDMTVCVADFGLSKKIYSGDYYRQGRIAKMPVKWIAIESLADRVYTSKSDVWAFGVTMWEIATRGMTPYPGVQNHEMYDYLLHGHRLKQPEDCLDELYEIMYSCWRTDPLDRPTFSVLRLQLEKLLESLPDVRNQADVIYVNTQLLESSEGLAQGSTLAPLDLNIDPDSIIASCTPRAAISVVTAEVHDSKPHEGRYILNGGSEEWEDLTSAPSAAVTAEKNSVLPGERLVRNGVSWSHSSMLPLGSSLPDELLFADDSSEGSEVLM

[6] = target: Sodium-dependent dopamine transporter (Homo sapiens, UniProt Q01959); assay: GPCRScan assay: inhibition of DAT; design: radioligand conc. used [nm] 3.6 – 16.0, parental cells stable HEK
Sodium-dependent dopamine transporter, sequence (Q01959 whole entry): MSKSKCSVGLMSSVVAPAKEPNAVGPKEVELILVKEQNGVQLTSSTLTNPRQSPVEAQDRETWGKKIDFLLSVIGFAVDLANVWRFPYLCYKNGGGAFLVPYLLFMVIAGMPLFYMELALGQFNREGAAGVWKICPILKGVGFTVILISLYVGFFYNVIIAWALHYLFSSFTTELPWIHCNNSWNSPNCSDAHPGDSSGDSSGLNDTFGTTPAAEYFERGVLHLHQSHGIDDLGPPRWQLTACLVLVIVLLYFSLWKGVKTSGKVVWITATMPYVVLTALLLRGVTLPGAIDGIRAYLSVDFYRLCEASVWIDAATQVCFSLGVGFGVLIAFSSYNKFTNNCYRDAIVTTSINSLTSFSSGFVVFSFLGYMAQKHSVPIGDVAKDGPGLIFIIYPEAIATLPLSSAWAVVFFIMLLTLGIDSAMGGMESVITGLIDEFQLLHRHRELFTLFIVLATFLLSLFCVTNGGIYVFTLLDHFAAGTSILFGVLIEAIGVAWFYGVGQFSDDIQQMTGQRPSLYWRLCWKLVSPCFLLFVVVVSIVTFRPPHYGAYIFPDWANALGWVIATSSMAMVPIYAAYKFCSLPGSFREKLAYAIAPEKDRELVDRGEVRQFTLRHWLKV

[7] = target: Serine/threonine-protein kinase 24 (Homo sapiens) (UniProt Q9Y6E0); assay: MST3 SGC Tm panel (DSF); settings: for ΔTm: Compound concentration 10.0 uM
Serine/threonine-protein kinase 24 (Homo sapiens), sequence (Q9Y6E0 whole entry, looked up): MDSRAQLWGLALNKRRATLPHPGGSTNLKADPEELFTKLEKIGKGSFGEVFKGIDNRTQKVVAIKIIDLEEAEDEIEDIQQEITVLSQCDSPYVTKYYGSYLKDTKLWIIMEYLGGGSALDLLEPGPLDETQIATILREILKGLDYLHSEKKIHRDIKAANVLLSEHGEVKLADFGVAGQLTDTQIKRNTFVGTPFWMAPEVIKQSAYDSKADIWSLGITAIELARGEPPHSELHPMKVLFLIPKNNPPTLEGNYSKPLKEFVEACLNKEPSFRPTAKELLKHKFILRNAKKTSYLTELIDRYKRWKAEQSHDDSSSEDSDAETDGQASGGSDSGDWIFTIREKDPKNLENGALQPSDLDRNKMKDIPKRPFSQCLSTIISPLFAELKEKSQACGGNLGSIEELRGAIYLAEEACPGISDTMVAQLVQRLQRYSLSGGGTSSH

[8] = target: Casein kinase II subunit alpha (Homo sapiens) (UniProt P68400); assay: CSNK2A1A SGC Tm panel (DSF); settings: for ΔTm: Compound concentration 10.0 uM
Casein kinase II subunit alpha (Homo sapiens), sequence (P68400 whole entry, looked up): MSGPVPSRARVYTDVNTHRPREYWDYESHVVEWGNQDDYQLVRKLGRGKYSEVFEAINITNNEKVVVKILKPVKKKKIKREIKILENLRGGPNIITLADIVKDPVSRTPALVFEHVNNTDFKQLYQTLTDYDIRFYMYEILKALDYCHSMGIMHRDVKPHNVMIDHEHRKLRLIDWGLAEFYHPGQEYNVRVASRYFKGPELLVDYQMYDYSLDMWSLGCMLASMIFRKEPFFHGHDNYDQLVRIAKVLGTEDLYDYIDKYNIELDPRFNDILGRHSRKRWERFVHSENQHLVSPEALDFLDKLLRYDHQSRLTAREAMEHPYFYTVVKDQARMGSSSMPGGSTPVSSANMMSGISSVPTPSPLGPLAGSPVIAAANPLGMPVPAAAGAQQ

[9] = target: 5-hydroxytryptamine receptor 6 (Homo sapiens) (UniProt P50406); settings: Compound concentration 10.0 uM
5-hydroxytryptamine receptor 6 (Homo sapiens), sequence (P50406 whole entry): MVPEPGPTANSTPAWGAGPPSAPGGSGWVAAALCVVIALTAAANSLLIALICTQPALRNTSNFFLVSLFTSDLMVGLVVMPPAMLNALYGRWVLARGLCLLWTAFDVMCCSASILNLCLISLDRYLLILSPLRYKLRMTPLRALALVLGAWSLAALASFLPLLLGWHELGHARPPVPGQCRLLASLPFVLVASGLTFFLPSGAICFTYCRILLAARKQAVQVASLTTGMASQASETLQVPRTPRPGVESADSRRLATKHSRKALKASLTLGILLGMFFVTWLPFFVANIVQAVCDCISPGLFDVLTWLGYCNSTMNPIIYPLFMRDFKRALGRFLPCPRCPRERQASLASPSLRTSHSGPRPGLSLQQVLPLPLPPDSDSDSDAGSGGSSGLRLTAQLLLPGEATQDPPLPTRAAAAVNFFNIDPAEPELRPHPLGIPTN

Calcium/calmodulin-dependent protein kinase type 1D (Homo sapiens), sequence (Q8IU85 whole entry, looked up): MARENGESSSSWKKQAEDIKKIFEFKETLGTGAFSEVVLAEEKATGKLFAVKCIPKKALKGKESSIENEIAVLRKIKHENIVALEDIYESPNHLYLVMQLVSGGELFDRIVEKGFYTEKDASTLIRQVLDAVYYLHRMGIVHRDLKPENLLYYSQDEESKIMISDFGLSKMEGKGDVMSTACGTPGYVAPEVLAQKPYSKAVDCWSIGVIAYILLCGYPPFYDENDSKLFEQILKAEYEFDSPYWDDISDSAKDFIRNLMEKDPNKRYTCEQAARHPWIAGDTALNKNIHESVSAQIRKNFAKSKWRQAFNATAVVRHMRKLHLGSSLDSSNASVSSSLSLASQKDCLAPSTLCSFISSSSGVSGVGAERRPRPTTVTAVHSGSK
5-hydroxytryptamine receptor 2B, sequence (P41595 whole entry): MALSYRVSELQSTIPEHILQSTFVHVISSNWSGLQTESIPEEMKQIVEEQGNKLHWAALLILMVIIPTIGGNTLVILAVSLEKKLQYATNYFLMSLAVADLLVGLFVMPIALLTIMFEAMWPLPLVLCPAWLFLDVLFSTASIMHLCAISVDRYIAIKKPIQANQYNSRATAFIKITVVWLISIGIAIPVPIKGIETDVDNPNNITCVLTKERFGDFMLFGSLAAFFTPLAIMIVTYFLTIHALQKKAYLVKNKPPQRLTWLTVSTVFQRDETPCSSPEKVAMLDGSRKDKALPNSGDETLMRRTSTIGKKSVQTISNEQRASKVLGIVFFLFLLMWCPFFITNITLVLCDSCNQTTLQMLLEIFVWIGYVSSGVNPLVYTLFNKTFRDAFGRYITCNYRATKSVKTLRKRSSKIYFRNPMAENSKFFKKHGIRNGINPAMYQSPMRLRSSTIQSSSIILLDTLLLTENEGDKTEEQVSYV
5-hydroxytryptamine receptor 1D (Homo sapiens), sequence (P28221 whole entry): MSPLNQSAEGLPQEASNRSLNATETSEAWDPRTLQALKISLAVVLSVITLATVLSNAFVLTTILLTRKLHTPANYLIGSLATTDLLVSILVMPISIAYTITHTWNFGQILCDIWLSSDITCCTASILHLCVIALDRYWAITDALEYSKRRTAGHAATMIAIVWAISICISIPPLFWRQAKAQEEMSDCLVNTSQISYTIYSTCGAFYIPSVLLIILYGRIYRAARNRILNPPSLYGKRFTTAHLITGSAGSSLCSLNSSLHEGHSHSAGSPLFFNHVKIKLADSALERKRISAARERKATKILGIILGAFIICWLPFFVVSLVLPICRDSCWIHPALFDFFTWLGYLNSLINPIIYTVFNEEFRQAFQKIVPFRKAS

| inhibition [1] | delta Tm Staurosporine positive control [2] | ΔTm [2] | inhibition [3] | delta Tm Staurosporine positive control [4] | ΔTm [4] | delta Tm Staurosporine positive control [5] | ΔTm [5] | Ki [6] | pKi [6] | delta Tm Staurosporine positive control [7] | ΔTm [7] | delta Tm Staurosporine positive control [8] | ΔTm [8] | inhibition [9] | SMILES |
| --- | --- | --- | --- | --- | --- | --- | --- | --- | --- | --- | --- | --- | --- | --- | --- |
| 36% | 10.8 | 0.455 | 86.8% | 6.19 | 0.229 | 6.35 | 0.284 | > 10 µM | < 5 | 6.74 | -1.99 | 2.85 | 0.0573 | 16.4% | C[C@H](NC(=O)c1cn(C2(C#N)CC2)cn1)C(=O)Nc1nc(-c2cccc(-c3ccn(C)n3)c2)cs1 |
| 16.7% | 10.8 | 0.174 | 48.2% | 6.19 | -0.318 | 6.35 | 0.54 | > 10 µM | < 5 | 6.74 | -5.55 | 2.85 | -0.131 | 8.9% | COC[C@H](NC(=O)c1ccn(S(C)(=O)=O)c1)C(=O)Nc1nc(-c2cccc(-c3ccn(C)n3)c2)cs1 |

From ChEMBL document CHEMBL5303766, “Data for DCP probe FHT-2344” (2022)
